# Key:
# [1] = system: HT 22 mouse neuronal cell line; assay: Inhibition test of beta amyloid toxicity (MTT); assay type: cell-based; settings: HT22 cells, 25 μM aggregated beta amyloid, 18 hours
# Procedure: HT 22 mouse neuronal cell line was incubated in DMEM (Dulbecco's Modified Eagle's Medium, Gibco-BRL) medium supplemented with 10% FBS (Fetal Bovine Serum, Hyclone) and 1% penicillin/streptomycin (Sigma Co.) Prior to test, HT22 cell was incubated on 96 well plates with a density of 5×10^3 cell/well and further incubated in serum free DMEM medium for 1 hour before the treatment of test sample. Various concentration of diethyl ether extract prepared in Example 1 used as a test sample was added thereto and incubated for 1 hour. Aggregated beta amyloid (US peptide) was treated thereto to the concentration of 25 μM and incubated for 18 hours to induce cell necrosis. 5 mg/ml of MTT (3-(4,5-dimethyl-2-thiazolyl)-2,5-diphenyl-2H-tetrazolium bromide) solution was added each well with 15 μl/well and the well was incubated for 4 hours. Dissolving buffer solution (10% SDS, 50% dimethyl formamide, pH 4.7) was added to each well with 100 μl/well and reacted for overnight. 18 hours after the reaction, the absorbance of solution was determined by microplate reader (SAFIRE, TECAN) at 570 nm/630 nm wavelength (Gillardon, F. et al., Brain Research, 706(1) pp 169-172, 1996).
# [2] = system: mouse brain; assay: Brain staining of AD acute model (Cresyl violet, ChAT, GFAP); assay type: in vivo
# Procedure: At the end of the experiment, the brain of animals was delivered and kept in 10% formalin solution to staining. At the end of behavior test, the mouse brain was delivered, kept in 10% formalin solution for 24 hours and transferred to 30% sucrose solution. After fixing the brain, the brain was performed to coronal section with a width of 40 μm using by cryostat. The sliced brain was performed to Cresyl violet staining to confirm the injury of brain neuronal cell, to ChAT staining to confirm the injury of cholinergic neuron and to GFAP staining to confirm the activation of astrocytes. After the tissue was placed on gelatin-coated slide to stain with Cresyl violet, the tissue was performed to dehydration using ethanol. The tissue was incubated for about 3 minutes and dipped into 0.5% Cresyl Violet solution for 30 mins. After the solution was performed to […] with ethanol, the slice was dipped into xylene for 3 minutes. The dried tissue was fixed with Canada balsam mounting medium. In the washing process between all the antibody incubation, PBST was used to washing tissues. To reduce the activity of endogenous peroxidase activity, the tissue was pretreated with 0.5% H2O2 and then treated with 5% FBS at room temperature for 1 hour to remove non-specific binding. The tissue was incubated at 4° C. for overnight using by mouse anti-GFAP (1:200) monoclonal antibody and goat-anti-ChAT (1:200) polyclonal antibody. A horse radish peroxidase-conjugated anti-mouse IgG and anti-goat IgG secondary antibody (1:600) was incubated at room temperature for 1 hour and detected by DAB kit after the incubation.
# [3] = system: mice directly treated with beta amyloid; assay: AD acute model, Y maze test; assay type: in vivo, mouse; settings: 50 mg/kg oral, mice given beta amyloid intracerebro-ventricularly
# Procedure: For passive avoidance test, male ICR mouse weighing 25 g purchased from Samtaco Co. was bred with five mice per cage and the cage was kept with following condition maintaining the temperature of 22±2° C. and the relative humidity of […] under the regularly controlled light/dark condition with an interval of 12 hours. Synthetic beta amyloid 1-42 (BACHEM) was dissolved in DMSO in order to be 250 μM solution and diluted with PBS to 10 nM and aggregated at 37° C. for four days (Passive Avoidance test) or six days (Y maze test). Aggregated beta amyloid 1-42 was administrated into the mice according to the procedure disclosed in the literature (Lausen & Belknap, J. Pharmacol. Methods, 16 pp 355-357, 1986). 50 μl of aggregated beta amyloid 1-42 was administrated into the 2.4 mm depth of bregma region with 50 μl of Hamilton micro-syringe equipped with 26-gauge needle. The behavior tests were divided into Y maze test and PA (passive avoidance) test after the beta amyloid administration. […] The entering order of mice in the pathway was observed and the entering latency time was determined when four limbs was entered within the pathway. To determine the spatial memory, the determined spontaneous alteration behavior was calculated by following empirical formula 1 and the actual alteration was assigned to one time at the time that mice was entered three pathways continuously. […]
# [4] = Oral administration toxicity test; assay type: in vivo; settings: 2000 mg/kg
# [5] = system: mice administered aggregated beta amyloid 1-42; assay: AD acute model, passive avoidance test; assay type: in vivo, mouse; settings: oral, mice given beta amyloid, p<0.05
# Procedure: For passive avoidance test, male ICR mouse weighing 25 g purchased from Samtaco Co. was bred with five mice per cage and the cage was kept with following condition maintaining the temperature of 22±2° C. and the relative humidity of […] under the regularly controlled light/dark condition with an interval of 12 hours.
# Synthetic beta amyloid 1-42 (BACHEM) was dissolved in DMSO in order to be 250 μM solution and diluted with PBS to 10 nM and aggregated at 37° C. for four days (Passive Avoidance test) or six days (Y maze test).
# Aggregated beta amyloid 1-42 was administrated into the mice according to the procedure disclosed in the literature (Lausen & Belknap, J. Pharmacol. Methods, 16 pp 355-357, 1986).
# 50 μl of aggregated beta amyloid 1-42 was administrated into the 2.4 mm depth of bregma region with 50 μl of Hamilton micro-syringe equipped with 26-gauge needle. The behavior tests were divided into Y maze test and PA (passive avoidance) test after the beta amyloid administration. Y maze test was performed 2 days after the administration and PA test was 3 days after the administration. Each test was done with more than 10 mice. […]
# At 24 hours after the training session, the identical experiment was performed again with mouse to measure the latency time staying at the light chamber. […] Latency to enter the dark compartment from the light compartment was measured as a step through latency. […]
smiles,measurement,setting,value
"CC(C)C1=Cc2ccc3c(c2C(=O)C1=O)C=CCC3(C)C [1,2-Didehydromiltirone, 1,2-didehydromiltirone]",inhibitory effect on the toxicity of beta amyloid,[1],did not inhibit
CC(C)C1=Cc2ccc3c(c2C(=O)C1=O)CCCC3(C)C [Miltirone],inhibitory effect on the toxicity of beta amyloid,[1],did not inhibit
Cc1cccc2c3c(ccc12)C1=C(C(=O)C3=O)[C@@H](C)CO1 [dihydrotanshinone I],inhibitory effect on the toxicity of beta amyloid,[1],did not show any inhibitory effect
Cc1coc2c1C(=O)C(=O)c1c-2ccc2c1CCCC2(C)C [tanshinone IIA],injury of cholinergic neuron caused by beta amyloid,[2]; ChAT staining,recovered the injury of cholinergic neuron
same,injury of memory learning correlated with hippocampus injury (brain staining),"[2]; Cresyl violet staining, mouse brain after beta amyloid",significantly recovered
same,activity of astrocyte caused by beta amyloid,[2]; GFAP staining,reduced the increased activity of astrocyte
same,"recovery of memory learning disorder (spontaneous alteration, Y maze)",[3],recovered
same,toxicity at oral administration test,[4],no toxicity
same,"latency time (step through latency, passive avoidance)",[5],significantly increased
same,inhibitory effect on the toxicity of beta amyloid,[1],mere inhibitory effect
Cc1coc2c1C(=O)C(=O)c1c-2ccc2c(C)cccc12 [tanshinone I],inhibitory effect on the toxicity of beta amyloid,[1],did not show any inhibitory effect
